Consider five compounds from patent publication US8575091B1, “Amylin analogues and pharmaceutical compositions thereof” (Novo Nordisk A/S, priority 2012, dated 2013).

Assay [1] addresses T1, human amylin receptor (amylin 3(a) receptor: human calcitonin receptor + RAMP-3) (Homo sapiens, UniProt O60896+P30988).
T1 construct: expressed in transfected cells
T1 sequence (P30988 25-474): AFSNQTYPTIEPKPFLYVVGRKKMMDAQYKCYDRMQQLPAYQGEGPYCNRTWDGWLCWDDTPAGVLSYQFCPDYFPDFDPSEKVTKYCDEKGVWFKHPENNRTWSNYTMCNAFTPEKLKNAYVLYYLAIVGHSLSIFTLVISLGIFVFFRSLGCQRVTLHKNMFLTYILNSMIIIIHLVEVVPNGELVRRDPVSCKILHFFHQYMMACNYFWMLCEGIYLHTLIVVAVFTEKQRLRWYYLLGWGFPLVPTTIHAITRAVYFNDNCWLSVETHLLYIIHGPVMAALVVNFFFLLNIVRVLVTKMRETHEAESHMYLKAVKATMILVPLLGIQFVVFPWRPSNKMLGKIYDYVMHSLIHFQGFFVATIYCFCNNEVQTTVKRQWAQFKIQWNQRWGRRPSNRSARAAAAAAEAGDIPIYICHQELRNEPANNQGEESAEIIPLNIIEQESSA
T1 sequence (O60896 24-148 partner): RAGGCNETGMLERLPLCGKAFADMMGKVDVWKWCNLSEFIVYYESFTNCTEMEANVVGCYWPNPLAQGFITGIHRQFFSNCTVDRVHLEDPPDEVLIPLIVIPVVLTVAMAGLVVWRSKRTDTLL
Briefly: Assay (II)a functional assay, human amylin receptor (CRE luciferase, BHK cells). It counts as cell-based. The following applies: for EC50: read-out: hAmylin-R funct. EC50.

For assay [2], the target named is T2, human calcitonin receptor (Homo sapiens, UniProt P30988).
T2 construct: expressed in transfected cells
T2 sequence (P30988 25-474): T1 sequence (P30988 25-474)
Briefly: Assay (II)a functional assay, human calcitonin receptor (CRE luciferase, BHK cells).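 Note: luminescence from a CRE-driven luciferase reporter, read by single photon counting after cells were exposed to test samples for 3 h at 37 °C under 5% CO2.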 In kind it is cell-based. The following applies: read-out: hCTR funct. EC50.

In assay [3] the target is T3, human amylin receptor (Homo sapiens, UniProt O60896+P30988).
T3 construct: expressed in transfected cells
T3 sequence (P30988 25-474): T1 sequence (P30988 25-474)
T3 sequence (O60896 24-148 partner): T1 sequence (O60896 24-148 partner)
Briefly: Assay (V) binding to the human amylin receptor (SPA, 125I-rat amylin). The note with it: for IC50: human amylin receptor membranes, SPA, read-out: hAmylin-R bind IC50. An outline of the steps: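 IC50, taken as receptor affinity, came from one-site binding competition analysis of scintillation proximity counts. Amylin 3(a)/CRE-luc cell membranes (35 ng/μL final) were mixed with SPA beads (0.05 mg/well) in 50 mM Hepes pH 7.4 containing CaCl2, MgCl2, 0.1% OA and 0.02% Tween20.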

For assay [4], the target named is T2, human calcitonin receptor. Briefly: Assay (VII) binding to the human calcitonin receptor (SPA, 125I-Calcitonin).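 Note: cell membranes coupled to SPA beads, competitive displacement read by scintillation counting, IC50 derived from a one-site competition fit as a measure of receptor affinity.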 The following applies: read-out: hCTR bind IC50.
[5] abbreviates: functional assay, human amylin receptor.
[6] abbreviates: Table 6, human functional selectivity (hCTR EC50 / hAmylin-R EC50).
The mark [7] stands for this setting: Table 6a, human functional selectivity (hCTR EC50 / hAmylin-R EC50), at least 5.
The mark [8] stands for this setting: Table 6i, hCTR funct. EC50 / hAmylin-R funct. EC50.
The mark [9] stands for this setting: Table 6i, human amylin receptor functional.
[10] abbreviates: Table 6j, hCTR funct. EC50 / hAmylin-R funct. EC50.
The mark [11] stands for this setting: Table 6k, hCTR funct. EC50 / hAmylin-R funct. EC50.

The structures appear in SMILES notation. Where two headings read alike, the source gives them in different places. Numbered stars: 1 amine (or outer) side, 2 acyl side, 3 side chain; on linkers, the order of the positions; unused ones are H or OH. Bridge positions count the residues as written; N and C are the ends. Side chains are listed from the residue outwards. Peptide text beside a SMILES is read from it. * marks the point of attachment. C20 diacid = O=C(O)CCCCCCCCCCCCCCCCCCC(=O)*; γGlu = O=C(O)[C@H](CCC(=O)[*:2])N[*:1]; AEEA = NCCOCCOCC(=O)O

What is called EC50 is the concentration needed to bring the measured effect to its halfway point. One may read the IC50 as the midpoint of a concentration-inhibition curve. For the compound `CC[C@H](C)[C@H](NC(=O)[C@H](C)NC(=O)CNC(=O)[C@H](Cc1ccccc1)NC(=O)[C@H](CC(N)=O)NC(=O)[C@@H]1CCCN1C(=O)[C@H](CO)NC(=O)[C@H](CO)NC(=O)[C@H](Cc1c[nH]cn1)NC(=O)[C@H](CCCNC(=N)N)NC(=O)[C@H](CC(C)C)NC(=O)[C@H](Cc1ccccc1)NC(=O)[C@H](Cc1c[nH]cn1)NC(=O)[C@H](C)NC(=O)[C@H](CC(C)C)NC(=O)[C@H](CCCNC(=N)N)NC(=O)[C@H](CCC(N)=O)NC(=O)[C@@H](NC(=O)[C@H](C)NC(=O)[C@@H]1CSSC[C@H](NC(=O)[C@H](CCCCN)NC(=O)CC[C@H](NC(=O)CCCCCCCCCCCCCCCCCCC(=O)O)C(=O)O)C(=O)N[C@@H](CC(N)=O)C(=O)N[C@@H]([C@@H](C)O)C(=O)N[C@@H](C)C(=O)N[C@@H]([C@@H](C)O)C(=O)N1)[C@@H](C)O)C(=O)N1CCC[C@H]1C(=O)N[C@@H](CO)C(=O)N[C@@H](CO)C(=O)N[C@H](C(=O)N[C@@H](CC(N)=O)C(=O)N[C@H](C(=O)NCC(=O)N[C@@H](CO)C(=O)N[C@@H](CCC(=O)O)C(=O)N[C@H](C(=O)N[C@@H](Cc1ccc(O)cc1)C(N)=O)[C@@H](C)O)C(C)C)[C@@H](C)O` [Example 30] ({C20 diacid-γGlu}-KCNTATCATQRLAHFLRHSSPNFGAIPSSTNVGSETY-NH2; disulfide 2-7), the 50% effective concentration (EC50) in assay [1] (setting [5]) amounted to 0.134 nM; in assay [2] it was 1.68 nM. Further, the IC50 is 0.919 nM in assay [3] and 21.7 nM in assay [4].
For the compound `CC[C@H](C)[C@H](NC(=O)[C@H](C)NC(=O)CNC(=O)[C@H](Cc1ccccc1)NC(=O)[C@H](CC(N)=O)NC(=O)[C@@H]1CCCN1C(=O)[C@H](CO)NC(=O)[C@H](CO)NC(=O)[C@H](Cc1c[nH]cn1)NC(=O)[C@H](CCCNC(=N)N)NC(=O)[C@H](CC(C)C)NC(=O)[C@H](Cc1ccccc1)NC(=O)[C@H](CCC(=O)O)NC(=O)[C@H](C)NC(=O)[C@H](CC(C)C)NC(=O)[C@H](CCCNC(=N)N)NC(=O)[C@H](CCC(N)=O)NC(=O)[C@@H](NC(=O)[C@H](C)NC(=O)[C@@H]1CSSC[C@H](NC(=O)[C@H](CCCCN)NC(=O)CC[C@H](NC(=O)CCCCCCCCCCCCCCCCCCC(=O)O)C(=O)O)C(=O)N[C@@H](CC(N)=O)C(=O)N[C@@H]([C@@H](C)O)C(=O)N[C@@H](C)C(=O)N[C@@H]([C@@H](C)O)C(=O)N1)[C@@H](C)O)C(=O)N1CCC[C@H]1C(=O)N[C@@H](CO)C(=O)N[C@@H](CO)C(=O)N[C@H](C(=O)N1CCC[C@H]1C(=O)N[C@H](C(=O)NCC(=O)N[C@@H](CO)C(=O)N[C@@H](CC(N)=O)C(=O)N[C@H](C(=O)N[C@@H](Cc1ccc(O)cc1)C(N)=O)[C@@H](C)O)C(C)C)[C@@H](C)O` [Example 31] ({C20 diacid-γGlu}-KCNTATCATQRLAEFLRHSSPNFGAIPSSTPVGSNTY-NH2; disulfide 2-7), the “Ratio hCT/hAmylin funct.” value in assay [1] (setting [6]), in assay [1] (setting [7]), in assay [1] (setting [8]), in assay [1] (setting [10]) and in assay [1] (setting [11]) was 6.4 in each case. Besides, the EC50 in assay [1] (setting [9]) came to 0.112 nM; in assay [2] it was 0.717 nM. For the same compound, the “Ratio hCT/hAmylin binding” value in assay [3] (Table 7b, human calcitonin receptor binding IC50 divided by human amylin receptor binding IC50) came to 16.0; in assay [3] (human binding ratio, included for comparison) it was 16.0. Further, the IC50 in assay [3] was determined as 0.204 nM; in assay [4], 3.26 nM.
Regarding `CC[C@H](C)[C@H](NC(=O)[C@H](C)NC(=O)CNC(=O)[C@H](Cc1ccccc1)NC(=O)[C@H](CC(N)=O)NC(=O)[C@@H]1CCCN1C(=O)[C@H](CO)NC(=O)[C@H](CO)NC(=O)[C@H](Cc1c[nH]cn1)NC(=O)[C@H](CCCNC(=N)N)NC(=O)[C@H](CC(C)C)NC(=O)[C@H](Cc1ccccc1)NC(=O)[C@H](CCC(=O)O)NC(=O)[C@H](C)NC(=O)[C@H](CC(C)C)NC(=O)[C@H](CCCNC(=N)N)NC(=O)[C@H](CCC(N)=O)NC(=O)[C@@H](NC(=O)[C@H](C)NC(=O)[C@@H]1CSSC[C@H](NC(=O)[C@H](CCCCN)NC(=O)CC[C@H](NC(=O)CCCCCCCCCCCCCCCCCCC(=O)O)C(=O)O)C(=O)N[C@@H](CC(N)=O)C(=O)N[C@@H]([C@@H](C)O)C(=O)N[C@@H](C)C(=O)N[C@@H]([C@@H](C)O)C(=O)N1)[C@@H](C)O)C(=O)N1CCC[C@H]1C(=O)N[C@@H](CO)C(=O)N[C@@H](CO)C(=O)N[C@H](C(=O)N[C@@H](CC(N)=O)C(=O)N[C@H](C(=O)NCC(=O)N[C@@H](CCCCN)C(=O)N[C@@H](CC(N)=O)C(=O)N[C@H](C(=O)N[C@@H](Cc1ccc(O)cc1)C(N)=O)[C@@H](C)O)C(C)C)[C@@H](C)O` [Example 36] ({C20 diacid-γGlu}-KCNTATCATQRLAEFLRHSSPNFGAIPSSTNVGKNTY-NH2; disulfide 2-7), the “Ratio hCT/hAmylin funct.” value in assay [1] (setting [6]), in assay [1] (setting [7]), in assay [1] (setting [8]), in assay [1] (setting [10]) and in assay [1] (setting [11]) was 6.8 in each case. In addition, the figures for the EC50 in assay [1] (setting [9]) and in assay [2] were 0.189 nM and 1.28 nM, respectively. Also, the IC50 in assay [3] was 0.403 nM; in assay [4] it was 6.31 nM.
For `CC[C@H](C)[C@H](NC(=O)[C@H](C)NC(=O)CNC(=O)[C@H](Cc1ccccc1)NC(=O)[C@H](CC(N)=O)NC(=O)[C@@H]1CCCN1C(=O)[C@H](CO)NC(=O)[C@H](CO)NC(=O)[C@H](Cc1c[nH]cn1)NC(=O)[C@H](CCCNC(=N)N)NC(=O)[C@H](CC(C)C)NC(=O)[C@H](Cc1ccccc1)NC(=O)[C@H](CC(N)=O)NC(=O)[C@H](C)NC(=O)[C@H](CC(C)C)NC(=O)[C@H](CCCNC(=N)N)NC(=O)[C@H](CCC(N)=O)NC(=O)[C@@H](NC(=O)[C@H](C)NC(=O)[C@@H]1CSSC[C@H](NC(=O)[C@H](CCCCN)NC(=O)CC[C@H](NC(=O)CCCCCCCCCCCCCCCCCCC(=O)O)C(=O)O)C(=O)N[C@@H](CC(N)=O)C(=O)N[C@@H]([C@@H](C)O)C(=O)N[C@@H](C)C(=O)N[C@@H]([C@@H](C)O)C(=O)N1)[C@@H](C)O)C(=O)N1CCC[C@H]1C(=O)N[C@@H](CO)C(=O)N[C@@H](CO)C(=O)N[C@H](C(=O)N[C@@H](CC(N)=O)C(=O)N[C@H](C(=O)NCC(=O)N[C@@H](Cc1c[nH]cn1)C(=O)N[C@@H](CC(N)=O)C(=O)N[C@H](C(=O)N[C@@H](Cc1ccc(O)cc1)C(N)=O)[C@@H](C)O)C(C)C)[C@@H](C)O` [Example 40], the EC50 in assay [1] (setting [5]) was 0.164 nM; in assay [2], 2.68 nM. Also, the values for the IC50 in assay [3] and in assay [4] were 0.549 nM and 17.1 nM, respectively.
`CC[C@H](C)[C@H](NC(=O)[C@H](C)NC(=O)CNC(=O)[C@H](Cc1ccccc1)NC(=O)[C@H](CC(N)=O)NC(=O)[C@@H]1CCCN1C(=O)[C@H](CO)NC(=O)[C@H](CO)NC(=O)[C@H](Cc1c[nH]cn1)NC(=O)[C@H](CCCNC(=N)N)NC(=O)[C@H](CC(C)C)NC(=O)[C@H](Cc1ccccc1)NC(=O)[C@H](CC(N)=O)NC(=O)[C@H](C)NC(=O)[C@H](CC(C)C)NC(=O)[C@H](CCCNC(=N)N)NC(=O)[C@H](CCC(N)=O)NC(=O)[C@@H](NC(=O)[C@H](C)NC(=O)[C@@H]1CSSC[C@H](NC(=O)[C@H](CCCNC(=N)N)NC(=O)[C@@H](N)CCCCNC(=O)COCCOCCNC(=O)CC[C@H](NC(=O)CCCCCCCCCCCCCCCCCCC(=O)O)C(=O)O)C(=O)N[C@@H](CC(N)=O)C(=O)N[C@@H]([C@@H](C)O)C(=O)N[C@@H](C)C(=O)N[C@@H]([C@@H](C)O)C(=O)N1)[C@@H](C)O)C(=O)N1CCC[C@H]1C(=O)N[C@@H](CO)C(=O)N[C@@H](CO)C(=O)N[C@H](C(=O)N[C@@H](CC(N)=O)C(=O)N[C@H](C(=O)NCC(=O)N[C@@H](CO)C(=O)N[C@@H](Cc1c[nH]cn1)C(=O)N[C@H](C(=O)N[C@@H](Cc1ccc(O)cc1)C(N)=O)[C@@H](C)O)C(C)C)[C@@H](C)O` [Example 45] (H-K([AEEA-γGlu-C20 diacid])RCNTATCATQRLANFLRHSSPNFGAIPSSTNVGSHTY-NH2; disulfide 3-8): the “Ratio hCT/hAmylin funct.” value in assay [1] (setting [6]), in assay [1] (setting [7]), in assay [1] (setting [10]) and in assay [1] (setting [11]) was 17.0 throughout. In addition, the values for the EC50 in assay [1] (setting [5]) and in assay [2] were 0.594 nM and 10.1 nM, respectively. Also, the figures for the IC50 in assay [3] and in assay [4] were 0.552 nM and 14.8 nM, respectively.
